Measurements reported in paper PMC11933534, “Favipiravir induces HuNoV viral mutagenesis and infectivity loss with clinical improvement in immunocompromised patients” (Clinical Immunology (Orlando, Fla.), 2024).

Columns and labels:
Format in all cases: in vivo
HuNoV GII.4 Sydney[P16] = assay: Antiviral treatment of HuNoV-infected zebrafish larvae (viral RNA by RT-qPCR)
Experimental: (§1) First, compounds were dissolved in 100% DMSO (spectroscopy grade). To determine the correct dose for pericardial injections in zebrafish larvae of all compounds (i.e. favipiravir, tizoxanide and their 1:1 combination), a weight-dependent conversion was applied. For this purpose, the optimized and increased clinical dose of 400 mg favipiravir TDS and 200 mg tizoxanide BD was used. To ensure the weight-converted dose was not toxic for zebrafish larvae of 3 days post fertilization, a toxicity analysis was performed. […] The following parameters were investigated: touch response, morphology, posture, oedema, signs of necrosis, swim bladder and heartbeat.
Zebrafish larvae were anesthetized and positioned as described previously, in short: zebrafish larvae of 3 days post fertilization were anesthetized and transferred to an agarose mold to position them on their dorsal side with the yolk facing upward. In every experiment, the injection needle was calibrated to ensure the precision of the injection volume. Microinjection was performed using an M3301R Manual Micromanipulator (WPI, Friedberg, Germany) and a FemtoJet 4i pressure microinjector (Eppendorf, Hamburg, Germany). Compound-treated zebrafish larvae received a 1 nL (1.5 nL in case of the combination treatment) injection of compound in the pericardial cavity, while negative control zebrafish were injected with an equal volume of DMSO. Subsequently, the zebrafish larvae received an injection of 3 nL virus in the yolk. After both injections, zebrafish larvae were transferred to 6-well plates with Danieau's solution and further maintained in an incubator with a 14/10 h light/dark cycle at 32 °C.
Zebrafish larvae were homogenized (Precellys 24, Bertin Technologies, Montigny-le-Bretonneux, France), the homogenates were cleared by centrifugation (5 min, 9000 g), and RNA was extracted using the Direct-zol RNA kit (Zymo Research, Irvine, CA, USA), according to the manufacturer's protocol. RNA levels were quantified with a one-step RT-qPCR (iTaq Universal Probes One-Step Kit, Bio-Rad, Hercules, CA, USA) as previously described.

zebrafish larvae = assay: Toxicity analysis in zebrafish larvae
Experimental: as §1

IRF-1 = assay: Innate immune gene expression in HuNoV-infected zebrafish larvae: IRF-1; conditions: tizoxanide 4 ng; HuNoV GII.4 Sydney[P16]; day 2 pi; p = 0.023
Experimental: (§2) To generate the cDNA, the ImProm-II Reverse Transcription System (Promega, Madison, WI, USA) was used. Briefly, a total of 1 μg (ca. 8 μL) of extracted RNA was added to 2 μL of random hexamers and incubated at 70 °C for 5 min, followed by 5 min at 4 °C. To this reaction mix a total volume of 30 μL containing 8 μL of Improm II 5× reaction buffer, 6 mM MgCl2, 0.5 mM deoxynucleoside triphosphate, 40 units of RNase inhibitor, 2 μL of Improm II reverse transcriptase, followed by an incubation at 25 °C for 5 min, 37 °C for 1 h, and 72 °C for 15 min. A qPCR was performed with 4 μL template cDNA using the SsoAdvanced Universal SYBR green supermix, 600 nM of forward and reverse primers for IRF-1, Mx and the housekeeping genes 18 s, β-actin, and ef1a. Primer sequences were as previously described [[65], [66], [67], [68]]. Cycling conditions were as follows; polymerase activation at 95 °C for 3 min followed by 40 cycles of denaturation at 95 °C for 15 s, annealing at 55 °C and extension at 72 °C for 30 s (Quantstudio 5, ThermoFisher Scientific, Waltham, MA, USA). Data was normalized to the housekeeping genes and compared to DMSO-injected zebrafish larvae infected with HuNoV to determine the fold induction of the expression, according to the Livak method.

Mx = assay: Innate immune gene expression in HuNoV-infected zebrafish larvae: Mx; conditions: tizoxanide 4 ng; HuNoV GII.4 Sydney[P16]; day 2 pi; p = 0.0403
Experimental: as §2

SMILES: O=C(Nc1ncc([N+](=O)[O-])s1)c1ccccc1O [tizoxanide]
- Reduction of HuNoV replication (HuNoV GII.4 Sydney[P16]; monotherapy favipiravir 25 ng or tizoxanide 4 ng, in-house GII.4 Sydney[P16] stool sample, peak 2 dpi, p = 0.0006 and 0.001): > 1 log10
- Effect on HuNoV replication (HuNoV GII.4 Sydney[P16]; tizoxanide 4 ng alone, inoculum SS A, p > 0.05): no significant effect
- Toxicity in the zebrafish larval model (zebrafish larvae; 25 ng favipiravir or 4 ng tizoxanide, drug administered alone): did not show toxicity
- Toxicity in the zebrafish larval model (zebrafish larvae; tizoxanide 6 ng): signs of toxicity, including heart oedema, necrosis and spine curvature
- Fold increase in IRF-1 expression vs untreated (DMSO) infected larvae (IRF-1): 4 fold
- Fold increase in Mx expression vs untreated (DMSO) infected larvae (Mx): 9 fold
